“Also recorded” adds a separate entry of the source. Marks after values point to notes of the source that are not given here.
Columns and labels:
[1] = system: MOG-induced CREAE in SJL Mice; assay: MOG-induced CREAE in SJL mice, molecular species comparison of GLA; format: in vivo; details: for Mean Clinical Score / No. with EAE: 100 μl of test lipid
Source text: γ-Linolenic acid (18:3n -6, GLA) is known to be rapidly converted to longer-chain omega-6 polyunsaturated fatty acids dihomo-γ-linolenic acid and arachidonic acid in vivo (Phylactos et al 1994, Harbige et al 1995, 2000). Therefore to increase the level of membrane long chain omega-6 fatty acids in MS the inventors have reviewed results obtained with several GLA-containing oils:- both fungal (from Mucor javanicus) and plant (Borago officianalis), Evening primrose Oenothera spp. or Blackcurrant Ribes spp) as well as a synthetic tri-GLA oil as GLA delivery systems in an in vivo experimental animal model of MS known as chronic relapsing experimental autoimmune encephalomyelitis (CREAE).
Experimental autoimmune encephalomyelitis (EAE) is an autoimmune inflammatory disease of the CNS, with or without demyelination, inducible in rodents and other mammalian species. […] Chronic relapsing and demyelinating EAE models (CREAE), which are characterised by demyelination and relapse phases, are therefore currently the animal models of choice for MS research (Fazakerley 1997).

EAE [2] = details: guinea-pig (Meade et al 1978); cited from earlier work
[3] = system: multiple sclerosis patients; details: about 20 g/day; cited from earlier work
EAE [4] = details: depending on dose (Harbige et al); cited from earlier work

| Compound | Mean Clinical Score [1] | No. with EAE [1] | Protective effect in CREAE (in words) ([1]; compared with borage oil) | Incidence and severity of EAE (EAE [2]) | Duration and severity of relapses of multiple sclerosis [3] | Protection in acute rat EAE (EAE [4]) |
| --- | --- | --- | --- | --- | --- | --- |
| CCCCC/C=C\C/C=C\C/C=C\CCCCC(=O)OCC [EE-GLA, Ethyl-Ester-GLA] | 3.0 ± 0.8 | 5/6 |  |  |  |  |
| CCCCC/C=C\C/C=C\C/C=C\CCCCC(=O)OCC(COC(=O)CCCC/C=C\C/C=C\C/C=C\CCCCC)OC(=O)CCCC/C=C\C/C=C\C/C=C\CCCCC [TG-GLA, Triacylglycerol-GLA] | 1.0 ± 1.3^c | 3/6 | protective effects similar to that of the borage oil; also recorded: effective at a lower dose level than the borage oil |  |  |  |
| CCCCC/C=C\C/C=C\CCCCCCCC(=O)O [linoleic acid] |  |  |  | partially suppresses the incidence and severity of EAE | relapses were less frequent, less severe and of shorter duration than controls | dose-dependent action on the clinical severity but did not abolish it |
| CCCCC/C=C\C/C=C\C/C=C\CCCCC(=O)O [γ-linolenic acid] |  |  |  |  |  | fully protective |

From US7935729B2, “Use of triglyceride oils containing γ-linolenic acid residues and linoleic acid residues for the treatment of neurodegenerative disease” (BTG International Limited, priority 2003, dated 2011)
